In patent US20030050242A1, “Protein polymerization inhibitors and methods of use” (priority 1999, published 2003):
Several values for one entry are separate records, joined by “and”; a condition that tells them apart may be missing. Identical values can stand only once. Peptide text beside a SMILES is read from it.

Assays:
HIV-1 SF-2 virus = test: electron microscopy of HIV-1 particles from infected HUT78 cells; format: cell-based; details: 1 μM or 10 μM added 3, 5 or 7 days post infection; cells fixed day 14
Protocol: Evidence that peptide agents inhibit or prevent viral capsid protein polymerization and, thus, proper nucleocapsid assembly was obtained by performing electron microscopy on HIV-1 particles that were contacted with a modified small peptide. In this set of experiments, HUT78 cells were infected with HIV-1 SF-2 virus at 300TCID50 for 1 hr at 37° C. Subsequently, the infected cells were washed and pelleted 3 times. […] GPG-NH2 was then added into the cell cultures 3, 5 or 7 days post infection at concentration of 1 μm or 10 μM. A control sample was administered 0.5 μM Ritonavir (a protease inhibitor). The cells were cultured until day 14, at which point, the cells were fixed in 2.5% glutaraldehyde by conventional means. The fixed cells were then post-fixed in 1% OSO4 and were dehydrated, embedded with epoxy resins, and the blocks were allowed to polymerize. Epon sections of virus infected cells were made approximately 60-80 nm thin in order to accommodate the width of the nucleocapsid. The sections were mounted to grids stained with 1.0% uranyl acetate and were analyzed in a Zeiss CEM 902 microscope at an accelerating voltage of 80 kV. The microscope was equipped with a spectrometer to improve image quality and a liquid nitrogen cooling trap was used to reduce beam damage. The grids having sections of control and GPG-NH2 incubated cells were examined in several blind studies.
(See FIG. 1). […]

BSA = molecular target: T1, BSA (Bos taurus, UniProt P02769); test: dialysis-based binding assay with 14C-GPG-NH2
T1 construct: purchased Sigma
Protocol: (§1) To determine whether the peptide agents listed in Table 1 bound to the viral capsid protein p24, an in vitro binding assay was performed. As described previously, a dialysis-based binding assay was conducted using a dialysis membrane with a pore size of less than 10 kD. (Slide-A-Lyzer, Pierce). Fifty microliters of a 10 μM stock of the recombinant proteins p24, gp120 (gifts from the AIDS program, NCIB) and BSA (Sigma) were introduced into separate dialysis membranes and the proteins were dialyzed at 4° C. for 2 days against a 500 ml solution composed of 150 mM NaCl and 50 mM Tris-HCl, pH 7.4 buffer, and 27.5 μM of ^14C-GPG-NH2 (Amersham Ltd. UK). Subsequently, ten or five microliter aliquots of the dialyzed p24, gp 120, and BSA were removed and mixed with 3 ml of ReadySafe (Beckman) in a scintillation vial. The C^14 was then detected by scintillation counting.
(§2) In Table 2, the results from a representative dialysis-based binding assay are provided. […] The amount of radioactive GPG-NH2 associated with p24 was 7.5 times greater than that present in the buffer.

HIV-1 = details: summary of Experiments 1-6
Protocol: (§3) Next, the ability of peptide agents to inhibit viral infection was evaluated. Accordingly, the peptide agents listed in Table 1 were used in several viral (e.g., HIV-1, HIV-2, and SIV) infection assays. […] Once inhibitory tripeptides were identified, more specific assays were conducted to determine the effect of varying concentrations of the selected tripeptides and combination treatments (e.g., the use of more than one modified tripeptide in combination).

[1] = molecular target: T2, recombinant p24 (viral capsid protein) (Human immunodeficiency virus type 1 group M subtype B, UniProt P04591); test: dialysis-based binding assay with 14C-GPG-NH2; set-up: species or system HIV-1
T2 construct: AIDS program, NCIB (gift)
Protocol: as §1, §2

SIV = test: viral infection assay in H9 cells, reverse transcriptase (RT) activity in supernatant; format: cell-based; details: summary of the experiments in H9 cells
Protocol: as §3
(§4) To monitor the replication of virus, reverse transcriptase (RT) activity in the supernatants was assayed using a commercially available Lenti-RT activity kit. (Cavidi Tech, Uppsala, Sweden). The amount of RT was determined with the aid of a regression line of standards. […] Syncytium formation was also monitored by microscopic examination.
(§5) (Cavidi Tech). The amount of RT was determined with the aid of a regression line of standards.

HIV-2 = test: as above; format: cell-based; details: summary of the experiments in H9 cells
Protocol: as §3, §4, §5

recombinant gp120 = molecular target: T3, recombinant gp120 (Human immunodeficiency virus type 1 group M subtype B, UniProt P03375); test: dialysis-based binding assay with 14C-GPG-NH2
T3 construct: recombinant proteins p24, gp120 (gifts from the AIDS program, NCIB); AIDS program, NCIB (gift)
Protocol: To determine whether the peptide agents listed in Table 1 bound to the viral capsid protein p24, an in vitro binding assay was performed. As described previously, a dialysis-based binding assay was conducted using a dialysis membrane with a pore size of less than 10 kD. (Slide-A-Lyzer, Pierce). […] Subsequently, ten or five microliter aliquots of the dialyzed p24, gp 120, and BSA were removed and mixed with 3 ml of ReadySafe (Beckman) in a scintillation vial. The C^14 was then detected by scintillation counting.

[2] = molecular target: viral capsid protein (p24) of HIV-2 (HIV-2)
[3] = molecular target: major capsid protein (p24) of HIV-1 (HIV-1) (UniProt P04591)
[4] = molecular target: viral capsid protein (p24) of SIV (SIV)
[5] = molecular target: major capsid protein (p24) of HIV-1 (HIV-1) (UniProt P04591); remark: listed apart in the source
[6] = molecular target: major capsid protein (p24) of HIV-1 (HIV-1) (UniProt P04591); remark: listed apart in the source
[7] = 27.5 μM 14C-GPG-NH2, dialysis 4° C. 2 days, dialysis buffer 1.816
[8] = radioactivity relative to dialysis buffer

NCC(=O)N1CCC[C@H]1C(=O)NCC(N)=O [GPG-NH2, glycyl-prolyl-glycine amide] (H-Gly-Pro-Gly-NH2)
capsid/nucleocapsid morphology of HIV-1 particles (HIV-1 SF-2 virus): discernable capsid structures that are distinct from the Ritonavir-treated particles
μCi/ml, sample BSA (BSA; [7]): 1.674 μCi/ml
radioactive GPG-NH2 associated with BSA over the amount in the dialysis buffer (BSA; in words): no appreciable amount
times buffer, sample BSA (BSA; [8]): 0.922 times buffer
effect on HIV-1 infection, in words (HIV-1): inhibited and/or prevented HIV-1 infection
μCi/ml, sample p24 [1, 7]: 13.712 μCi/ml
times buffer, sample p24 [1, 8]: 7.5 times buffer and 7.551 times buffer
effect on SIV infection, in words (SIV): inhibit or prevent HIV-2 and SIV infection
effect on HIV-2 infection, in words (HIV-2): inhibit or prevent HIV-2 and SIV infection
μCi/ml, sample gp120 (recombinant gp120; [7]): 1.745 μCi/ml
radioactive GPG-NH2 associated with gp120 over the amount in the dialysis buffer (recombinant gp120; in words): no appreciable amount
times buffer, sample gp120 (recombinant gp120; [8]): 0.961 times buffer

Gly-Pro-Gly-NH2 (peptide)
reverse transcriptase (RT) activity in the supernatants, Day 10 RT (OD) [2]: 0.145 OD
reverse transcriptase (RT) activity in the supernatants, Day 10 RT (OD) [3]: 0.074 OD
reverse transcriptase (RT) activity in the supernatants, Day 10 RT (OD) [4]: 0.103 OD
p24 production of infected HUT78 cells (HIV-1 p24 ELISA), Day 7 HIV-1, reduction (%), peptide at 100 µM [5]: 97%

GPG-NH2 + GKG-NH2 + CQG-NH2 (pool or library)
p24 in the supernatants of infected H9 cells, Day 14 HIV-1, reduction (%) [6]: 100%
